One assay has as its target T1, Substance-K receptor (Homo sapiens, UniProt P21452).
T1 sequence (P21452 whole entry): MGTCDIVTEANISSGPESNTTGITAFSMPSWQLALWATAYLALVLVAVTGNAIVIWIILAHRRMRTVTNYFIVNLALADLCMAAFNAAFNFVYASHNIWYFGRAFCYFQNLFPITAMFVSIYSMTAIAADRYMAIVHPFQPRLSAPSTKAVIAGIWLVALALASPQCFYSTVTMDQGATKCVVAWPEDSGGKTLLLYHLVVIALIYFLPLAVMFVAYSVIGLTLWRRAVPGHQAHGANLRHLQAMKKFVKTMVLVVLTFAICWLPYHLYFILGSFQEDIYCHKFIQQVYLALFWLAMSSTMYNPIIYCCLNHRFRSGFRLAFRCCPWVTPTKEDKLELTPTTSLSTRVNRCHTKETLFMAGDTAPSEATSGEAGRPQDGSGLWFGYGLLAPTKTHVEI
Nature of the assay: Binding affinity towards Tachykinin receptor 2 in CHO cells using [3H]-neurokinin A as radioligand. Format: cell-based.

For the next assay, the target named is Substance-P receptor (Homo sapiens, UniProt P25103). Nature of the assay: Binding affinity towards Tachykinin receptor 1 in CHO cells using [3H]-Sar SP as radioligand. The class given is cell-based.
Sequence of Substance-P receptor (P25103 whole entry): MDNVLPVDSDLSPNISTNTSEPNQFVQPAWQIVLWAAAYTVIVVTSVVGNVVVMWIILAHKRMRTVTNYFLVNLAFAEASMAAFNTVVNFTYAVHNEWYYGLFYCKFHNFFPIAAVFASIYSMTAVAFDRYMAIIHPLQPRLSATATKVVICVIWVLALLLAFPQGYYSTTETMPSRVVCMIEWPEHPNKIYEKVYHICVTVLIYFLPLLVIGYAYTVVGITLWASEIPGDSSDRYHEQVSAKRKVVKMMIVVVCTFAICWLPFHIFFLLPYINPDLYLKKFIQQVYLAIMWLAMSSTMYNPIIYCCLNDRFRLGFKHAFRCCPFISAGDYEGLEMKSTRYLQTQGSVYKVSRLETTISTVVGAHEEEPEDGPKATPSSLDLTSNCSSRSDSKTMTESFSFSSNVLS
The target in assay [1] is T2, Substance-K receptor (Homo sapiens) (UniProt P21452).
T2 sequence (whole entry): T1 sequence (P21452 whole entry)
The note with it: 1 uM.
Description: Inhibitory activity against Tachykinin receptor 2 at a concentration of 1 uM

In assay [2] the target is T2, Substance-K receptor (Homo sapiens). The note with it: 0.1 uM.
Description: Inhibitory activity against Tachykinin receptor 2 at a concentration of 0.1 uM

Among the data in ChEMBL document CHEMBL1132779, “The design and synthesis of novel NK1/NK2 dual antagonists” (Bioorg Med Chem Lett, 2000) are Ki and inhibition values, retold here.

pKi: −log10 of the molar value.

In the case of `NC(=O)CN[C@@H](COCc1cc(C(F)(F)F)cc(C(F)(F)F)c1)[C@H](CCN1CCC(O)(c2ccccc2)CC1)c1ccc(Cl)c(Cl)c1`, the pKi is 7.47 on Substance-K receptor and 8.05 on Substance-P receptor.
For `CO/N=C(/COCc1cc(C(F)(F)F)cc(C(F)(F)F)c1)C(CCN1CCC(O)(c2ccccc2)CC1)c1ccc(Cl)c(Cl)c1` (configuration not stated), the inhibition in assay [1] was 35%. At Substance-P receptor, this compound had a pKi of 7.60.
As to `NC(=O)CNC(COCc1cc(C(F)(F)F)cc(C(F)(F)F)c1)C(CCN1CCC(O)(c2ccccc2)CC1)c1ccc(Cl)c(Cl)c1` (configuration not stated), the results for the negative logarithm of the Ki (pKi) at Substance-K receptor and at Substance-P receptor were 7.47 and 8.40, respectively.
Consider `CO/N=C(\COCc1cc(C(F)(F)F)cc(C(F)(F)F)c1)C(CCN1CCC(O)(c2ccccc2)CC1)c1ccc(Cl)c(Cl)c1` (configuration not stated), for which the values for the pKi at Substance-K receptor and at Substance-P receptor were 7.68 and 7.60, respectively.
As to `O/N=C(\COCc1cc(C(F)(F)F)cc(C(F)(F)F)c1)C(CCN1CCC(O)(c2ccccc2)CC1)c1ccc(Cl)c(Cl)c1` (configuration not stated), the pKi was 6.91 on Substance-K receptor and 7.62 at Substance-P receptor.
On Substance-K receptor, `CC(=O)NC1(c2ccccc2)CCN(CC[C@H](CN(C)C(=O)c2ccccc2)c2ccc(Cl)c(Cl)c2)CC1` [SAREDUTANT] gave a pKi of 9.30.
As to `O/N=C(/COCc1cc(C(F)(F)F)cc(C(F)(F)F)c1)C(CCN1CCC(O)(c2ccccc2)CC1)c1ccc(Cl)c(Cl)c1` (configuration not stated), the pKi is 6.45 at Substance-K receptor and 7.47 on Substance-P receptor.
In the case of `NC(=O)CN[C@H](COCc1cc(C(F)(F)F)cc(C(F)(F)F)c1)[C@@H](CCN1CCC(O)(c2ccccc2)CC1)c1ccc(Cl)c(Cl)c1`, the inhibition in assay [2] came to 10%. Also, the pKi on Substance-P receptor is 8.30.
Turning to `CO/N=C(\COCc1cc(C(F)(F)F)cc(C(F)(F)F)c1)[C@@H](CCN1CCC(O)(c2ccccc2)CC1)c1ccc(Cl)c(Cl)c1`, the pKi at Substance-K receptor was 6.40; on Substance-P receptor, 7.48.
`NC(=O)CN[C@H](COCc1cc(C(F)(F)F)cc(C(F)(F)F)c1)C(c1ccccc1)c1ccccc1`: the pKi at Substance-P receptor is 9.05.
On to `CO/N=C(\COCc1cc(C(F)(F)F)cc(C(F)(F)F)c1)[C@H](CCN1CCC(O)(c2ccccc2)CC1)c1ccc(Cl)c(Cl)c1`, for which the results for the pKi at Substance-K receptor and at Substance-P receptor were 8.15 and 7.70, respectively.
In the case of `NC(=O)CN[C@@H](COCc1cc(C(F)(F)F)cc(C(F)(F)F)c1)[C@@H](CCN1CCC(O)(c2ccccc2)CC1)c1ccc(Cl)c(Cl)c1`, the inhibition in assay [2] turned out to be 27%. The compound also gave a pKi at Substance-P receptor of 9.15.
